The values below are quoted from earlier work in patent US20070142460A1, “Compounds, compositions and methods” (priority 2003, published 2007).

In this series the test system is A549 cells.

In general, GI50 refers to the concentration giving 50% growth inhibition. Consider `O=c1[nH]cc(F)c(=O)[nH]1` [5-fluorouracil], for which the GI50 was 1000 nM.
As for `COc1cccc2c1C(=O)c1c(O)c3c(c(O)c1C2=O)C[C@@](O)(C(=O)CO)C[C@@H]3O[C@H]1C[C@H](N)[C@H](O)[C@H](C)O1` [doxorubicin], the GI50 was 63 nM.
As to `NC(=O)NO` [hydroxyurea], the GI50 was 500000 nM.
As to `CC(=O)O[C@H]1C(=O)[C@@]2(C)[C@H]([C@H](OC(=O)c3ccccc3)[C@]3(O)C[C@H](OC(=O)[C@H](O)[C@@H](NC(=O)c4ccccc4)c4ccccc4)C(C)=C1C3(C)C)[C@]1(OC(C)=O)CO[C@@H]1C[C@@H]2O` [paclitaxel], the GI50 was 4 nM.
